For data set [1], the system named is U-937 cells. Kind of data set: Drug uptake within U-937 cells quantified via HPLC. Format: cell-based, human. The conditions noted are these: for increase of doxorubicin within cells (uptake), magnetic field pulses vs untreated: 20 magnetic field pulses, HPLC 1.5-2 h after administration. As to the method: Employing the same experimental conditions used for cellular death analysis, quantification of doxorubicin was achieved via HPLC. The protocol of this experiment differed from the cellular death analysis in that quantification of doxorubicin was performed 2 hours after administration, rather than 48 hours. Rationale for this is based upon the rapid translocation of doxorubicin into the nucleus where it elicits its therapeutic action.
(§1) After following the general procedures above, samples were incubated for 1.5 h. The cells were then transferred to an Eppendorf tube and centrifuged at 7,500 g for 5 mins, after which the suspension media was removed. The resulting cell pellet was washed with the addition of 0.7 mL of PBS and removed, twice. The cells were lysed with the addition of 0.35 mL of a lysis solution (EDTA, SDS, Tris HCl at pH 8.00), centrifuged at 20,000 gravity for 15 min to pellet large cellular debris, and the supernatant was removed and analyzed via HPLC for doxorubicin quantification.
(§2) Analysis was performed using a Shimadzu HPLC system with C18 analytical column maintained at 32° C. Mobile phases consisted of water-formic acid (999:1, v/v, phase A) and acetonitrile-formic acid (999:1, v/v, phase B) filtered through a membrane filter (0.2 μm) prior to use. A gradient program starting at A:B (85:15, v/v) and ending at A:B (50:50, v/v) was applied over 20 min at a flow rate of 0.35 mL/min. (A:B-85:15-2 min, A:B 50:50-3-8 min, A:B 85:15-9-20 min). The column effluent was monitored via 590 nm.
Employing the same procedure, cells were incubated with the magnetic nanoparticles, treated with dox in the absence and presence of the magnetic field and left to incubate. After 1.5 h, the cells were pelleted, washed twice with sterile PBS, lysed, centrifuged to removal large cellular debris, and then analyzed via HPLC.

For data set [2], the system named is U-937 human cancer cell line.
Description: No Magnetic Pulses: Effects of Cell Suspension Transfer, and Presence or Absence of Doxorubicin and Dex-FeNP upon Cell Death in U-937—The effects of cell suspension transfer to the 5 mm tube was investigated. U-937 cells (40,000 cells/well) were cultured in the presence or absence of Dex-FeNP (final concentration of 0.0025 mg/mL), and in the presence or absence of doxorubicin (at the determined IC50 in U-937), and then transferred to the 5-mm NMR tube. Samples were left at room temperature for the same time duration as samples treated to magnetic pulses. Samples were returned to cell culture plates and then incubated for 2 hours, and finally evaluated for cell death.
20 Magnetic Pulses: Effects of Presence or Absence of Doxorubicin and Dex-FeNP upon Cellular Death in U937—To explore the effects of microporation upon cell death through the application of magnetic pulses upon Dex-FeNP, the same experimental protocol as outlined above for no pulses was performed, but with the application of 20 magnetic pulses to the sample to induce increased drug uptake and enhanced accumulation. The total time required for this single set of 20 pulses is 5 microseconds. During the 5 microseconds, the field is applied constantly, but after this time no further pulses are applied.
50 Magnetic Pulses: Maximizing Cell Death with Magnetic Pulses—To maximize the combinational cell death in this strategy, the number of magnetic pulses was increased.
(§4) A suspension of U-937 or REH in RPMI-1640 medium (cell density of 40,000 cells/well) was added to each well of a 48-well plate, final volume of 0.8 mL, to which 0.2 mL of a pre-prepared solution of Dex-FeNP was added to achieve a final concentration of 0.025 mg/mL and allowed to incubate. For experiments in which no Dex-FeNP was employed, 0.2 mL of media was added in place of the nanoparticle solution. After 24 h, 2 μL of a 0.1 mM doxorubicin solution in DMSO was added to each well to achieve a 0.2 μM concentration. For experiments in which doxorubicin was not used, 0.2 μL of DMSO was added. The contents of each well were then transferred to a sterilized 5-mm NMR-tube. Samples are then placed within a magnetic field generating system and subjected to magnetic pulses. Sample not exposed to the magnetic fields are left within the NMR-tubes for the same time duration as samples treated with the magnet field. Each sample in their respective NMR-tubes were inverted to ensure homogeneity after which 0.7 mL was transferred back to their respective wells on the 48-well plate. NOTE: Only 0.7 mL was transferred to ensure constant volume within each well post-magnetic field application.
Data set [3] relates to REH human cancer cell line (acute lymphocytic leukemia). The experiment in a line: Cell death in REH with/without Dex-FeNP, drug and magnetic field pulses (Alamar Blue). Format: cell-based. As to the method: (§3) Additional cancer cell line: Following the same protocol as outlined above, doxorubicin was evaluated in the REH cancerous cell line. […] As previously observed, when doxorubicin was introduced in the absence of Dex-FeNP cell death increased to ˜40%. […] A trend also observed within the U-937 cell line with doxorubicin.

A further data set concerns REH cell line. The experiment in a line: Drug accumulation within REH cells quantified via HPLC. Format: cell-based, human. As to the method:
as §3, §1, §2

The subject of data set [4] is U-937 (histiocytic lymphoma) human cancer cell line.
Excerpt: (§5) To evaluate the proposed magnetic field facilitated nanoparticle induced microporation, U-937 (lymphoma cancerous suspension cell line) was selected. To investigate the possible toxicity effects of Dex-FeNP within U-937 cells, doxorubicin was used as an evaluation tool. Through the comparison of the IC50 of doxorubicin in U-937 cells relative to the IC50 of doxorubicin in the presence of various concentration of the Dex-FeNP allows for direct comparison of the effects that the Dex-FeNP have upon U-937 cells. In addition to the concentration of the Dex-FeNP, the effects of cell seeding density was also investigated in 384 and 48-well plates (4,000 and 40,000 cells/well, respectively).
(§6) To either 48 or 96 well plates was added doxorubicin (100 to 0.1 μM) in DMSO, Dex-FeNP (0.25 to 0 mg/mL), and U-937 or REH cells (4,000 cells/well and 40,000 cells/well, respectively) to final volumes of 50 and 700 μL. Samples were incubated for 48 h, cell viability was assessed by adding 5 and 70 μM of Alamar blue to each well, incubated for an additional 2 h, and fluorescence read. IC50 values were determined from three or more independent experiments using Prism by GraphPad.
The subject of data set [5] is U-937 cells. The conditions noted are these: nanoparticles plus magnetic field pulses vs control.
Description: as §4
(§7) After following the general procedure above, samples were incubated for 48 h and then 70 μL of Alamar blue was added to each well and left to incubate for an additional 2 h. Cells were assessed for viability via standard methods for Alamar blue quantification.
Data set [6] deals with U-937 (histiocytic lymphoma) human cancer cell line. The experiment in a line: cells. As to conditions: U-937, 48 h.
Excerpt: as §5, §6
Data set [7] has as its system U-937 cells. The experiment in a line: cells. The conditions noted are these: Homo sapiens, U-937, U-937.
Description: as §4, §7

Several values for one entry are separate records, joined by “and”; a condition that tells them apart may be missing. Equal entries are not always repeated. Where two headings read alike, the source gives them in different places.

As to `S=c1nc[nH]c2nc[nH]c12` [6TP, 6-thiopurine], the “increase in accumulation of 6TP” value in the data set with U-937 cells [1] (U-937, Dex-FeNP plus 20 MF pulses, 2 h period) was 21.4%. For the same molecule, in data set [2] (U-937 (printed U-397), Dex-FeNP and 6TP in the presence of magnetic field (20 pulses), 48 h), the “increase in cell death” value worked out at 3%.

As to `COc1cccc2c1C(=O)c1c(O)c3c(c(O)c1C2=O)C[C@@](O)(C(=O)CO)C[C@@H]3O[C@H]1C[C@H](N)[C@H](O)[C@H](C)O1` [Doxorubicin], the “doxorubicin uptake relative to cells with neither Dex-FeNP nor pulses” value in the data set on U-937 cells [1] (U-937, Dex-FeNP, magnet pulses not applied) is listed as “no increase in doxorubicin uptake”. Also, the “increase of doxorubicin within cells (uptake), magnetic field pulses vs untreated” value was 75.2% in the data set on U-937 cells [1] (U-937 with Dex-FeNP); 75.2% and 75% in the data set on U-937 cells [1] (U-937 with Dex-FeNP, listed as doxorubicin). In addition, the “doxorubicin accumulation difference between the two systems at later time points” value with U-937 cells [1] (U-937 with Dex-FeNP, with vs without pulses, later than 2 h) was “lower than 75%”. Also, the “increase in cell death” value was about 8% in data set [3] (Dex-FeNP and doxorubicin in the presence of the magnetic field (20 pulses)); about 8% in data set [2] (U-937, pre-treated with magnetic nanoparticles, dox, 20 pulses of the magnetic field); “an increase in cell death” in data set [2] (U-937, pre-treated with magnetic nanoparticles, dox, 50 pulses); 12% in data set [2] (U-937, pre-treated with magnetic nanoparticles, dox, 50 pulses, listed as dox). The cell death in data set [3] (doxorubicin in the absence of Dex-FeNP, 20 magnetic field pulses) is recorded as about 40%; in data set [2] (U-937, doxorubicin at its IC50, absence of Dex-FeNP and magnetic pulses) it was “over 50%”; in data set [2] (U-937, doxorubicin plus Dex-FeNP, no magnetic field), “remained similar”; in data set [2] (U-937, doxorubicin plus Dex-FeNP, no magnetic field, listed as dox), about 50%. Further, the “increase in accumulation of doxorubicin” value in the data set on REH cell line (Dex-FeNP and doxorubicin, 20 magnetic field pulses, 2 h period) was found to be 38.7%. The doxorubicin accumulation result with REH cell line (absence of Dex-FeN and magnetic field) is reported as “no increase in doxorubicin accumulation”. Further, the “IC50 of doxorubicin relative to the doxorubicin control alone” value is reported as “returned to normal levels within the margins of standard deviation” in data set [4] (Dex-FeNP 0.0025 mg/mL (dilution 1/400), both cell density experiments); “increased in value significantly” in data set [4] (higher concentrations of Dex-FeNP (0.25 and 0.01 mg/mL)). Further, in data set [2] (all three elements present: doxorubicin, Dex-FeNP, magnetic pulses (number of pulses not stated)), the “increase in U-937 cell death” value came to 9.1%. The molecule also gave an increase in cytotoxicity in data set [2] (human, 48 h, 0.2 μM) of about 50%. Further, the “enhancement of the effects of the anti-cancer agent by the methodology” value with U-937 cells [5] is “up to 65%”. Further, the IC50 is 0.023 ± 0.012 µM in data set [6] (read-out: Doxorubicin IC50 (μM) in U-937, 48 h, 4,000 cells/well, 384 plate, 50 μL volume, Dextrin Nano-Particle 0 mg/mL); 0.022 ± 0.019 µM in data set [6] (read-out: Doxorubicin IC50 (μM) in U-937, 48 h, 4,000 cells/well, 384 plate, 50 μL volume, Dextrin Nano-Particle 0.000001 mg/mL); 0.018 ± 0.011 µM in data set [6] (read-out: Doxorubicin IC50 (μM) in U-937, 48 h, 4,000 cells/well, 384 plate, 50 μL volume, Dextrin Nano-Particle 0.0001 mg/mL); 0.018 ± 0.014 µM in data set [6] (read-out: Doxorubicin IC50 (μM) in U-937, 48 h, 4,000 cells/well, 384 plate, 50 μL volume, Dextrin Nano-Particle 0.001 mg/mL); 0.022 ± 0.008 µM in data set [6] (read-out: Doxorubicin IC50 (μM) in U-937, 48 h, 4,000 cells/well, 384 plate, 50 μL volume, Dextrin Nano-Particle 0.00125 mg/mL); 0.018 ± 0.012 µM in data set [6] (read-out: Doxorubicin IC50 (μM) in U-937, 48 h, 4,000 cells/well, 384 plate, 50 μL volume, Dextrin Nano-Particle 0.001666 mg/mL). Moreover, the IC50 in data set [6] (read-out: Doxorubicin IC50 (μM) in U-937, 48 h, 4,000 cells/well, 384 plate, 50 μL volume, Dextrin Nano-Particle 0.0025 mg/mL) was 0.018 ± 0.009 µM; in data set [6] (read-out: Doxorubicin IC50 (μM) in U-937, 48 h, 4,000 cells/well, 384 plate, 50 μL volume, Dextrin Nano-Particle 0.01 mg/mL) it was 3.44 ± 0.56 µM; in data set [6] (read-out: Doxorubicin IC50 (μM) in U-937, 48 h, 4,000 cells/well, 384 plate, 50 μL volume, Dextrin Nano-Particle 0.25 mg/mL) it was 4.19 ± 0.95 µM; in data set [6] (read-out: Doxorubicin IC50 (μM) in U-937, 48 h, 40,000 cells/well, 48 plate, 700 μL volume, Dextrin Nano-Particle 0 mg/mL) it was 0.201 ± 0.032 µM; in data set [6] (read-out: Doxorubicin IC50 (μM) in U-937, 48 h, 40,000 cells/well, 48 plate, 700 μL volume, Dextrin Nano-Particle 0.000001 mg/mL), 0.2 ± 0.079 µM; in data set [6] (read-out: Doxorubicin IC50 (μM) in U-937, 48 h, 40,000 cells/well, 48 plate, 700 μL volume, Dextrin Nano-Particle 0.0001 mg/mL) it was 0.17 ± 0.024 µM. For the same molecule, the IC50 in data set [6] (read-out: Doxorubicin IC50 (μM) in U-937, 48 h, 40,000 cells/well, 48 plate, 700 μL volume, Dextrin Nano-Particle 0.001 mg/mL) amounted to 0.19 ± 0.035 µM; in data set [6] (read-out: Doxorubicin IC50 (μM) in U-937, 48 h, 40,000 cells/well, 48 plate, 700 μL volume, Dextrin Nano-Particle 0.00125 mg/mL), 0.32 ± 0.022 µM; in data set [6] (read-out: Doxorubicin IC50 (μM) in U-937, 48 h, 40,000 cells/well, 48 plate, 700 μL volume, Dextrin Nano-Particle 0.001666 mg/mL), 0.2 ± 0.027 µM; in data set [6] (read-out: Doxorubicin IC50 (μM) in U-937, 48 h, 40,000 cells/well, 48 plate, 700 μL volume, Dextrin Nano-Particle 0.0025 mg/mL), 0.2 ± 0.019 µM; in data set [6] (read-out: Doxorubicin IC50 (μM) in U-937, 48 h, 40,000 cells/well, 48 plate, 700 μL volume, Dextrin Nano-Particle 0.01 mg/mL), 4.83 ± 0.028 µM; in data set [6] (read-out: Doxorubicin IC50 (μM) in U-937, 48 h, 40,000 cells/well, 48 plate, 700 μL volume, Dextrin Nano-Particle 0.25 mg/mL) it was 6.25 ± 0.208 µM. Further, the IC50 with U-937 cells [7] (Dex-FeNP (0.0025 mg/mL) alone, no magnetic field pulses) was determined as 273 nM; with U-937 cells [7] (Dex-FeNP (0.0025 mg/mL) plus 20 magnetic field pulses (combinational strategy)), 165 nM.

The values are drawn from US12514816B2, “Synergist therapy for enhanced drug delivery: magnetic field facilitated nanoparticle microporation” (Kansas State University Research Foundation, priority 2019, dated 2026).
